Assays:
[1] = tested on: IP1 production in hippocampi; experiment: Measurement of myo-inositol 1 phosphate (IP1) in hippocampus after oral administration; format: in vivo, male Long-Evans rats; conditions: 10 mg/kg oral, rat hippocampus, IP1/protein ratio, lithium chloride s.c.
Text: Animals used were male Long-Evans rats. They were used after acclimation for at least 1 week. Test compounds were suspended in 0.5% aqueous methylcellulose solution, and the suspension was orally administered to the rats. At a certain period of time after the oral administration, the solution prepared by dissolving lithium chloride in saline was subcutaneously administered into the rats. At a certain period of time after the subcutaneously administration, their bilateral hippocampi were isolated from the rats, and the wet weight thereof was measured. The hippocampi were homogenized with HEPES buffer, followed by centrifugation. The IP1 and protein concentrations in the supernatant were measured by IP-One HTRF assay kit (Cisbio Bioassays) and BCA protein assay kit (Thermo Scientific), respectively. The level of the IP1 production was expressed as the ratio of the concentration of IP1 to that of protein. The increase rate of the IP1 production was shown as a relative value when Vehicle administration group as 100%.

[2] = target: T1, human M1 receptor (hCHRM1) (Homo sapiens, UniProt P11229); experiment: Measurement of M1 receptor positive allosteric modulator (M1PAM) activity, calcium fluorescence (FLIPRtetra) with acetylcholine at EC20; format: cell-based; conditions: for activity (%) at 10 μM: 10 μM test compound, 100% = acetylcholine 1 μM, 0% = DMSO, acetylcholine at EC20; for EC50: inflection point of concentration-dependent curve, CHO-K1 cells expressing hCHRM1, acetylcholine at EC20 (final 0.6-0.8 nM), read-out: IP value
T1 construct: expressed in transfected cells
T1 sequence (P11229 1-460): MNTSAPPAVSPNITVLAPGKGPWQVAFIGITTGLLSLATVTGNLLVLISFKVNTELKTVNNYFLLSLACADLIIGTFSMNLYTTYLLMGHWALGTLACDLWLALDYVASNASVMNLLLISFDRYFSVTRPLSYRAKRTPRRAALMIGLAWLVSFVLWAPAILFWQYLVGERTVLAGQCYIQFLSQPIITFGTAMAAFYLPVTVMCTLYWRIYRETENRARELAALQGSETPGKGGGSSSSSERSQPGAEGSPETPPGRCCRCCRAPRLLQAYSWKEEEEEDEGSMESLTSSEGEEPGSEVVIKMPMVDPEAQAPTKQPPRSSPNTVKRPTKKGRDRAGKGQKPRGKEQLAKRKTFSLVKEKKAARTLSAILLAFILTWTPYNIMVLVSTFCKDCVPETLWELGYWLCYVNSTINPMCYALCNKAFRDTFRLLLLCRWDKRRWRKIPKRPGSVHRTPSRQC
Outline: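 CHO-K1 cells stably expressing hCHRM1, Fluo-4 AM loaded; compound added with acetylcholine at EC20 (final 0.6-0.8 nM), fluorescence read 1 min. Activity normalised to 1 μM acetylcholine (100%) and DMSO (0%); IP values taken as inflection point of the concentration-response curve.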

[3] = tested on: Scopolamine-induced memory deficits models; experiment: Novel object recognition test; format: in vivo, male Long-Evans rats; conditions: scopolamine 0.1 mg/kg s.c., mean±standard error
Experimental: Novel object recognition test is comprised of two trials called the acquisition and the retention trials. Scopolamine-induced memory deficits models were used for the test, and animals used were male Long-Evans rats (7-week-old). On the day before the test, for acclimation, the rats were allowed to freely move about the test box (40×40×50 cm) for 10 minutes. On the test day, the rats were acclimated to the test room for about 1 hr prior to the test. The test compounds were orally administered to the rats in a single dose 2 hr before the acquisition trial. For induction of learning and memory deficits, scopolamine (0.1 mg/kg) was subcutaneously administered into the rats 30 min before the acquisition trial. For the acquisition trial, two identical objects (A1, A2) were placed in the test box. The rats were put in the test box for 3 min, and the duration exploring each object was measured. The retention trial was performed 4 hr after the acquisition trial. For the retention trial, the familiar object (A3) used for the acquisition trial and the novel object (B) different shape from A3 were placed in the test box. The rats were put in the test box for 3 min. The duration exploring each object in the acquisition trial and the retention trial, and the exploration rate (%) of novel object was calculated. The exploration rate (%) of novel object was expressed as (the duration exploring the novel object)/[(the duration exploring the novel object)+(the duration exploring the familiar object)]×100(%) at mean±standard error.

SMILES	increase rate at 10 mg/kg (% of Vehicle) [1]	activity (%) at 10 μM [2]	EC50 [2]	exploration rate (%) of novel object ([3]; 10 mg/kg oral 2 hr before acquisition trial, control 62.37±3.24%, solvent-scopolamine 48.39±2.01%)	exploration rate (%) of novel object ([3]; 3 mg/kg oral 2 hr before acquisition trial, control 63.35±1.59%, solvent-scopolamine 52.08±2.47%)	exploration rate (%) of novel object ([3]; 3 mg/kg oral 2 hr before acquisition trial, control 66.4±2.3%, solvent-scopolamine 50.4±2.4%)
Cc1ccc(Cc2cc3c(c(C)c2C)CN([C@H]2CCCC[C@@H]2O)C3=O)cn1 [Example 25, 2-((1S,2S)-2-hydroxycyclohexyl)-4,5-dimethyl-6-((6-methylpyridin-3-yl)methyl)isoindolin-1-one]	32 % of Vehicle	90%	10 nM	57.55±5.03%		
COc1ccc(Cc2cc3c(c(C)c2C)CN([C@H]2COCC[C@@H]2O)C3=O)cc1 [Example 18, 2-[(3S,4S)-4-hydroxytetrahydro-2H-pyran-3-yl]-6-(4-methoxybenzyl)-4,5-dimethyl-2,3-dihydro-1H-isoindol-1-one]	40 % of Vehicle	88%	10 nM		59.11±3.87%	
Cc1c(Cc2ccc(-n3cccn3)cc2)cc2c(c1F)CN([C@H]1COCC[C@@H]1O)C2=O [Example 20, 4-fluoro-2-[(3S,4S)-4-hydroxytetrahydro-2H-pyran-3-yl]-5-methyl-6-[4-(1H-pyrazol-1-yl)benzyl]-2,3-dihydro-1H-isoindol-1-one]	108 % of Vehicle	109%	5.5 nM			61.2±3.1%
Cc1cc2c(cc1Cc1ccc(-c3cn(C)nn3)cc1)C(=O)N([C@H]1CCC[C@@H]1O)C2 (racemic) [Example 48, rac-2-(trans-2-hydroxycyclopentyl)-5-methyl-6-(4-(1-methyl-1H-1,2,3-triazol-4-yl)benzyl)isoindolin-1-one]		102%	31 nM			
Cc1c(Cc2ccc(-c3ccn(C)n3)cc2)cc2c(c1C)CN([C@H]1CCCC[C@@H]1O)C2=O (racemic) [Example 82, rac-2-(trans-2-hydroxycyclohexyl)-4,5-dimethyl-6-(4-(1-methyl-1H-pyrazol-3-yl)benzyl)isoindolin-1-one]		91%	5.7 nM			
Cc1c(Cc2ccc(-n3cccn3)cc2)cc2c(c1F)CN([C@H]1CCC[C@@H]1O)C2=O (racemic) [Example 79, rac-4-fluoro-2-(trans-2-hydroxycyclopentyl)-5-methyl-6-(4-(1H-pyrazol-1-yl)benzyl)isoindolin-1-one]		93%	72 nM			

From patent publication US9315458B2, “Nitrogen-containing heterocyclic compound” (Takeda Pharmaceutical Company Limited, priority 2014, dated 2016)
